From US10351547B2, “Somatostatin modulators and uses thereof” (priority 2016, dated 2019)

These compounds were tested against human SSTR2 (Homo sapiens (Human), UniProt P30874) (assay: Human SSTR2 intracellular cAMP functional assay for agonists (HTRF)). Conditions: not given.
Chain of human SSTR2 (P30874 whole entry): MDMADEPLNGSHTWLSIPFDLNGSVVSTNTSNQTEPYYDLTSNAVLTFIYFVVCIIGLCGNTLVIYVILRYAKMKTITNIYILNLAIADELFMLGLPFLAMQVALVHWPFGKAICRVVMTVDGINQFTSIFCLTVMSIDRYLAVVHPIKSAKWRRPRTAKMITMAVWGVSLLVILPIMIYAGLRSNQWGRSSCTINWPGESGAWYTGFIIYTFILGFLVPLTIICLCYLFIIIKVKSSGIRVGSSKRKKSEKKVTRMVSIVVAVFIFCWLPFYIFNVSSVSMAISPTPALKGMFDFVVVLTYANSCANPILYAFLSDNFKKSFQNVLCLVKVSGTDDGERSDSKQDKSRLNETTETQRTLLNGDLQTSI
Type: cell-based
In short: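 Cells bearing human SSTR2 exposed to compound for 20 minutes at 37 °C; after lysis, cAMP measured by time-resolved fluorescence (HTRF) and converted via a standard curve. EC50 calculated from cAMP versus compound concentration.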
In the case of `N#Cc1cccc(-c2ccc3ncc(-c4cc(F)cc(CN5CC(F)(F)C5)c4)c(N4CCC(N)CC4)c3c2)c1O` [2-71, 3-[4-(4-aminopiperidin-1-yl)-3-{3-[(3,3-difluoroazetidin-1-yl)methyl]-5-fluorophenyl}quinolin-6-yl]-2-hydroxybenzonitrile], the EC50 is reported as 100 to 1000 nM.
`Cc1cc(Cl)cc(-c2cnc3ccc(-c4cc(F)cc(C#N)c4O)cc3c2N2CC(CN)C2)c1` [2-22, 3-{4-[3-(aminomethyl)azetidin-1-yl]-3-(3-chloro-5-methylphenyl)quinolin-6-yl}-5-fluoro-2-hydroxybenzonitrile] gave an EC50 of 10 to 100 nM.
`CCCNCC1CN(c2c(-c3cc(C)cc(F)c3)cnc3ccc(-c4cc(F)c(O)c(F)c4)cc23)C1` [2-52, 2,6-difluoro-4-[3-(3-fluoro-5-methylphenyl)-4-{3-[(propylamino)methyl]azetidin-1-yl}quinolin-6-yl]phenol] showed an EC50 of 10 to 100 nM.
`N#Cc1cccc(-c2ccc3ncc(-c4cc(F)cc(F)c4)c(N4CCC(N)CC4)c3c2)c1OC1COC1` [2-73, 3-[4-(4-aminopiperidin-1-yl)-3-(3,5-difluorophenyl)quinolin-6-yl]-2-(oxetan-3-yloxy)benzonitrile] was tested, and the EC50 was 10 to 100 nM.
Work on `CNC(=O)[C@@H]1CN(c2c(-c3cc(F)cc(F)c3)cnc3ccc(-c4cccc(C#N)c4O)cc23)CC[C@H]1N` (relative stereo) [2-149, trans-4-Amino-1-[6-(3-cyano-2-hydroxyphenyl)-3-(3,5-difluorophenyl)quinolin-4-yl]-N-methylpiperidine-3-carboxamide] yielded an EC50 of 100 to 1000 nM.

Same assay, conditions: CHO-K1 cells stably expressing human SSTR2; NKH477-stimulated cAMP; read-out: EC50 (inhibition of cAMP activities via human SST2R)
For `N#Cc1cc(F)c(F)c(-c2ccc3ncc(-c4cc(F)cc(F)c4)c(N4CCC(N)CC4)c3c2)c1N` [2-179, 2-amino-3-[4-(4-aminopiperidin-1-yl)-3-(3,5-difluorophenyl)quinolin-6-yl]-4,5-difluorobenzonitrile], the EC50 was < 10 nM.
`COCCNc1c(C#N)cncc1-c1ccc2ncc(-c3cc(F)cc(F)c3)c(N3CC[C@H]4NCCO[C@@H]4C3)c2c1` (relative stereo) [2-252, 5-{4-[trans-octahydro-1H-pyrido[3,4-b]morpholin-6-yl]-3-(3,5-difluorophenyl)quinolin-6-yl}-4-[(2-methoxyethyl)amino]pyridine-3-carbonitrile] was tested, and the EC50 was < 10 nM.
In the case of `NC(=O)c1cc(F)cc(-c2ccc3nnc(-c4cc(F)cc(F)c4)c(N4CCC(N)CC4)c3c2)c1` [1-14, 3-[4-(4-aminopiperidin-1-yl)-3-(3,5-difluorophenyl)cinnolin-6-yl]-5-fluorobenzamide], the EC50 is reported as < 10 nM.
For `CONC(=O)Nc1c(Cl)cncc1-c1ccc2ncc(-c3cc(C)cc(F)c3)c(N3CCC(N)CC3)c2c1` [2-186, 1-{3-[4-(4-aminopiperidin-1-yl)-3-(3-fluoro-5-methylphenyl)quinolin-6-yl]-5-chloropyridin-4-yl}-3-methoxyurea], the EC50 was < 10 nM.
In the case of `NC1CCN(c2c(-c3cc(F)cc(F)c3)cnc3ccc(-c4cccnc4C=NO)cc23)CC1` [2-196, 1-[3-(3,5-difluorophenyl)-6-{2-[(hydroxyimino)methyl]pyridin-3-yl}quinolin-4-yl]piperidin-4-amine], the EC50 is reported as < 10 nM.
`COCOc1c(C#N)cccc1-c1ccc2ncc(-c3cc(F)cc(F)c3)c(N3CC[C@@H](N)[C@H](OC)C3)c2c1` [2-84] was tested, and the EC50 was < 10 nM.
`Cc1cc(F)cc(-c2nnc3cc(Cl)c(-c4cccc(C#N)c4O)cc3c2N2CCC(N)CC2)c1` [1-7, 3-[4-(4-aminopiperidin-1-yl)-7-chloro-3-(3-fluoro-5-methylphenyl)cinnolin-6-yl]-2-hydroxybenzonitrile] was tested, and the EC50 was < 10 nM.
`N#Cc1ccnc(-c2ccc3ncc(-c4cc(F)cc(F)c4)c(N4CC[C@H]5NCCO[C@@H]5C4)c3c2)c1F` (relative stereo) [2-261, 2-{4-[trans-octahydro-1H-pyrido[3,4-b]morpholin-6-yl]-3-(3,5-difluorophenyl)quinolin-6-yl}-3-fluoropyridine-4-carbonitrile] was tested, and the EC50 was 10 to 100 nM.
With `NC(=O)c1cc(F)cc(-c2ccc3nnc(-c4cc(Cl)cc(Cl)c4)c(N4CCC(NC5COC5)CC4)c3c2)c1` [1-31, 3-[3-(3,5-dichlorophenyl)-4-{4-[(oxetan-3-yl)amino]piperidin-1-yl}cinnolin-6-yl]-5-fluorobenzamide] the EC50 was < 10 nM.
`N#Cc1cccc(-c2ccc3ncc(-c4cc(F)cc(F)c4)c(N4CC[C@H]5NCCO[C@@H]5C4)c3c2)c1O` (relative stereo) [2-19, 3-{4-[trans-octahydro-1H-pyrido[3,4-b]morpholin-6-yl]-3-(3,5-difluorophenyl)quinolin-6-yl}-2-hydroxybenzonitrile] was tested, and the EC50 was < 10 nM.
With `CO[C@@H]1CN(c2c(-c3cc(C)cc(F)c3)nnc3cc(Cl)c(-c4cc(F)cc(C(N)=O)c4)cc23)CC[C@H]1N` (relative stereo) [1-10, 3-{4-[trans-4-amino-3-methoxypiperidin-1-yl]-7-chloro-3-(3-fluoro-5-methylphenyl)cinnolin-6-yl}-5-fluorobenzamide] the EC50 was < 10 nM.
Work on `N#Cc1cc(F)c(F)c(-c2ccc3ncc(-c4cc(F)cc(F)c4)c(N4CC[C@H]5NCCO[C@@H]5C4)c3c2)c1O` (relative stereo) [2-100, 3-{4-[trans-octahydro-1H-pyrido[3,4-b]morpholin-6-yl]-3-(3,5-difluorophenyl)quinolin-6-yl}-4,5-difluoro-2-hydroxybenzonitrile] yielded an EC50 of 10 to 100 nM.
In the case of `NC(=O)c1cccc(-c2ccc3ncc(-c4cc(F)cc(F)c4)c(N4CC[C@H]5NCCO[C@@H]5C4)c3c2)n1` [2-85, trans-6-[3-(3,5-difluorophenyl)-4-{octahydro-1H-pyrido[3,4-b]morpholin-6-yl}quinolin-6-yl]pyridine-2-carboxamide], the EC50 is reported as < 10 nM.
`Cc1cc(Cl)cc(-c2cnc3ccc(-c4cc(F)cc(C#N)c4O)cc3c2N2CC(C)(CN)C2)c1` [2-15, 3-{4-[3-(aminomethyl)-3-methylazetidin-1-yl]-3-(3-chloro-5-methylphenyl)quinolin-6-yl}-5-fluoro-2-hydroxybenzonitrile] gave an EC50 of 100 to 1000 nM.
In the case of `Cc1cc(F)cc(-c2nnc3ccc(-c4cc(F)cc(C(N)=O)c4)cc3c2N2CCC(N)CC2)c1` [1-13, 3-[4-(4-aminopiperidin-1-yl)-3-(3-fluoro-5-methylphenyl)cinnolin-6-yl]-5-fluorobenzamide], the EC50 is reported as < 10 nM.
For `Cc1cc(F)cc(-c2cnc3ccc(-c4cccc(C#N)c4O)cc3c2N2CC[C@H]3NCCO[C@@H]3C2)c1` (relative stereo) [2-20], the EC50 was < 10 nM.
In the case of `N#Cc1cc(F)cc(-c2ccc3ncc(-c4cc(F)cc(F)c4)c(N4CCC(N)CC4)c3c2)c1O` [2-10, 3-[4-(4-aminopiperidin-1-yl)-3-(3,5-difluorophenyl)quinolin-6-yl]-5-fluoro-2-hydroxybenzonitrile], the EC50 is reported as < 10 nM.
`Nc1c(-c2ccc3ncc(-c4cc(F)cc(F)c4)c(N4CC[C@H]5NCCO[C@@H]5C4)c3c2)cncc1C1CC1` (relative stereo) [2-267, 3-{4-[trans-octahydro-1H-pyrido[3,4-b]morpholin-6-yl]-3-(3,5-difluorophenyl)quinolin-6-yl}-5-cyclopropylpyridin-4-amine] showed an EC50 of 10 to 100 nM.
With `N#Cc1cccc(-c2ccc3nnc(-c4cc(Cl)cc(Cl)c4)c(N4CCC(N)CC4)c3c2)c1O` [1-21, 3-[4-(4-aminopiperidin-1-yl)-3-(3,5-dichlorophenyl)cinnolin-6-yl]-2-hydroxybenzonitrile] the EC50 was < 10 nM.
For `NC1CCN(c2c(-c3cc(Cl)cc(Cl)c3)nnc3ccc(-c4cc(F)c5[nH]c(=O)[nH]c5c4)cc23)CC1` [1-28, 6-[4-(4-aminopiperidin-1-yl)-3-(3,5-dichlorophenyl)cinnolin-6-yl]-4-fluoro-2,3-dihydro-1H-1,3-benzodiazol-2-one], the EC50 was < 10 nM.
In the case of `Cc1cc(F)cc(-c2cnc3ccc(-c4cc(F)cc(C#N)c4O)cc3c2N2CC(CN)C2)c1` [2-17, 3-{4-[3-(aminomethyl)azetidin-1-yl]-3-(3-fluoro-5-methylphenyl)quinolin-6-yl}-5-fluoro-2-hydroxybenzonitrile], the EC50 is reported as 10 to 100 nM.
In the case of `NC1CCN(c2c(-c3cc(F)cc(F)c3)cnc3ccc(-c4c(O)c(F)cc(F)c4F)cc23)CC1` [2-150, 2-[4-(4-aminopiperidin-1-yl)-3-(3,5-difluorophenyl)quinolin-6-yl]-3,4,6-trifluorophenol], the EC50 is reported as < 10 nM.
For `COC(=O)Nc1c(C#N)cccc1-c1ccc2ncc(-c3cc(F)cc(OC)c3)c(N3CCC(N)CC3)c2c1` [2-167, methyl N-{2-[4-(4-aminopiperidin-1-yl)-3-(3-fluoro-5-methoxyphenyl)quinolin-6-yl]-6-cyanophenyl}carbamate], the EC50 was < 10 nM.
`COC(=O)Nc1c(C#N)cncc1-c1ccc2ncc(-c3cc(F)cc(F)c3)c(N3CCC(N)CC3)c2c1` [2-125, methyl N-{3-[4-(4-aminopiperidin-1-yl)-3-(3,5-difluorophenyl)quinolin-6-yl]-5-cyanopyridin-4-yl}carbamate] was tested, and the EC50 was < 10 nM.
`COC(=O)Nc1c(C#N)cc(F)c(F)c1-c1ccc2ncc(-c3cc(F)cc(F)c3)c(N3CCC(N)CC3)c2c1` [2-180, methyl N-{2-[4-(4-aminopiperidin-1-yl)-3-(3,5-difluorophenyl)quinolin-6-yl]-6-cyano-3,4-difluorophenyl}carbamate] was tested, and the EC50 was < 10 nM.
`N#Cc1cccc(-c2ccc3ncc(-c4cc(F)cc(F)c4)c(N4CC[C@@H](N)[C@H](C(N)=O)C4)c3c2)c1O` (relative stereo) [2-146, trans-4-Amino-1-[6-(3-cyano-2-hydroxyphenyl)-3-(3,5-difluorophenyl)quinolin-4-yl]piperidine-3-carboxamide] was tested, and the EC50 was > 1000 nM.
In the case of `N#Cc1cccc(-c2ccc3ncc(-c4cc(F)cc(F)c4)c(N4CCC(N)CC4)c3c2)c1` [2-5, 3-[4-(4-aminopiperidin-1-yl)-3-(3,5-difluorophenyl)quinolin-6-yl]benzonitrile], the EC50 is reported as < 10 nM.
`Cc1cc(Cl)cc(-c2nnc3ccc(-c4cc(F)c5[nH]c(=O)[nH]c5c4)cc3c2N2CCC(N)CC2)c1` [1-23, 6-[4-(4-aminopiperidin-1-yl)-3-(3-chloro-5-methylphenyl)cinnolin-6-yl]-4-fluoro-2,3-dihydro-1H-1,3-benzodiazol-2-one] was tested, and the EC50 was < 10 nM.
